Measured values taken from the supplement of paper PMC10307832.

Compound: Cn1cc(-c2cnn3c(N)c(Br)c([C@@H]4CCCNC4)nc23)cn1
Experiment: relative viability (nuclei count vs DMSO), 5 days (fraction); higher = more cells survive
Summary of the method: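 Five library-drug doses, separated by factors of √10, were pinned into 1536-well plates holding lung cancer cell lines after an overnight stay at 37 °C. Cells were fixed, permeabilised and Hoechst-stained in one step after 5 days without medium change, then imaged at 4×. Viability compares treated-well with vehicle-well nuclei, counted in MetaXpress, as a median across plates. Passing plates had control CV below 25% and at least one doubling.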

| Cell Line | relative viability (0.05 µM) | relative viability (0.1581 µM) | relative viability (0.5 µM) | relative viability (1.581 µM) | relative viability (5 µM) |
| --- | --- | --- | --- | --- | --- |
| 201T | 0.972 | 1.01 | 0.996 | 0.86 | 0.746 |
| A-427 | 1.04 | 0.919 | 1.01 | 0.784 | 0.607 |
| ABC-1 | 0.938 | 0.988 | 0.758 | 0.566 | 0.455 |
| BEN | 1.05 | 0.902 | 0.904 | 0.972 | 0.834 |
| CAL-12T | 1.03 | 1.06 | 1.08 | 0.68 | 0.265 |
| COR-L23 | 1.08 | 1.26 | 1.11 | 0.803 | 0.45 |
| COR-L 105 | 0.85 | 0.85 | 0.843 | 0.705 | 0.656 |
| Calu-6 | 1.06 | 0.905 | 0.828 | 0.438 | 0.219 |
| ChaGo-K-1 | 0.99 | 1.08 | 1.09 | 0.89 | 0.997 |
| EKVX | 1.04 | 1.01 | 1.07 | 0.862 | 0.929 |
| EMC-BAC-2 | 0.917 | 1.03 | 0.976 | 0.949 | 0.827 |
| EPLC-272H | 1 | 0.974 | 0.896 | 0.628 | 0.379 |
| H3255 | 1.02 | 0.935 | 1.03 | 0.974 | 0.57 |
| HARA | 0.975 | 1.03 | 1.31 | 0.761 | 0.301 |
| HCC-15 | 1.07 | 1.08 | 1.06 | 0.928 | 0.936 |
| HCC-44 | 0.918 | 1.06 | 1.01 | 0.994 | 0.953 |
| HCC-78 | 1 | 1.04 | 1.09 | 0.957 | 0.749 |
| HCC-366 | 1.04 | 1.04 | 0.984 | 1.06 | 0.944 |
| HCC-827 | 0.971 | 1.08 | 1.07 | 1.12 | 0.945 |
| HOP-62 | 1.07 | 1.16 | 0.956 | 1.01 | 0.812 |
| IA-LM | 0.917 | 0.976 | 1.05 | 0.779 | 0.541 |
| LC-2-ad | 1.02 | 1.05 | 1.02 | 0.899 | 1.04 |
| LCLC-97TM1 | 0.982 | 1.11 | 1.1 | 0.969 | 0.925 |
| LCLC-103H | 1.03 | 0.986 | 1.05 | 0.909 | 1.03 |
| LK-2 | 1.04 | 0.951 | 0.836 | 0.729 | 0.711 |
| LOU-NH91 | 0.949 | 0.985 | 0.937 | 0.952 | 0.811 |

| Cell Line | relative viability (0.05 µM) | relative viability (0.1581 µM) | relative viability (0.5 µM) | relative viability (1.581 µM) | relative viability (5 µM) |
| --- | --- | --- | --- | --- | --- |
| LU99A | 0.952 | 0.985 | 0.901 | 0.949 | 0.926 |
| LXF-289 | 1.03 | 1.14 | 1.03 | 1.01 | 1.06 |
| NCI-H23 | 0.91 | 1.02 | 0.925 | 0.573 | 0.272 |
| NCI-H322M | 0.766 | 0.842 | 0.863 | 0.684 | 0.408 |
| NCI-H358 | 0.988 | 1.1 | 0.877 | 0.771 | 0.749 |
| NCI-H441 | 1.28 | 1.26 | 1.15 | 0.862 | 1.31 |
| NCI-H460 | 0.946 | 1.1 | 0.993 | 0.952 | 0.811 |
| NCI-H520 | 0.897 | 0.998 | 0.899 | 0.904 | 0.717 |
| NCI-H522 | 0.927 | 0.986 | 0.879 | 0.828 | 1.02 |
| NCI-H596 | 0.985 | 1.15 | 0.887 | 0.916 | 0.766 |
| NCI-H647 | 0.937 | 1.07 | 0.972 | 0.769 | 0.417 |
| NCI-H650 | 0.994 | 0.875 | 1.03 | 0.844 | 0.715 |
| NCI-H661 | 1.01 | 0.977 | 1.03 | 1.01 | 0.772 |
| NCI-H727 | 0.964 | 1.07 | 0.941 | 0.82 | 0.57 |
| NCI-H838 | 0.955 | 1.06 | 0.882 | 0.885 | 0.878 |
| NCI-H1355 | 0.973 | 1.07 | 1.04 | 0.919 | 0.883 |
| NCI-H1395 | 0.813 | 0.713 | 0.926 | 0.548 | 0.45 |
| NCI-H1437 | 1.02 | 1.11 | 1.06 | 0.847 | 0.832 |
| NCI-H1563 | 0.941 | 0.878 | 0.966 | 0.942 | 0.873 |
| NCI-H1648 | 0.926 | 0.958 | 0.669 | 0.749 | 0.83 |
| NCI-H1650 | 0.862 | 1.08 | 1.12 | 0.707 | 0.494 |
| NCI-H1651 | 1.01 | 0.993 | 0.917 | 0.783 | 0.503 |
| NCI-H1666 | 1.02 | 1.04 | 1.02 | 0.981 | 0.875 |
| NCI-H1703 | 0.925 | 0.664 | 0.529 | 0.347 | 0.159 |
| NCI-H1734 | 0.916 | 1.1 | 0.963 | 0.78 | 0.793 |
| NCI-H1755 | 1.07 | 1.06 | 1 | 0.887 | 0.882 |

| Cell Line | relative viability (0.05 µM) | relative viability (0.1581 µM) | relative viability (0.5 µM) | relative viability (1.581 µM) | relative viability (5 µM) |
| --- | --- | --- | --- | --- | --- |
| NCI-H1792 | 0.869 | 1.08 | 0.96 | 0.575 | 0.835 |
| NCI-H1793 | 1.07 | 1.12 | 0.927 | 0.91 | 0.786 |
| NCI-H1915 | 0.984 | 0.998 | 0.971 | 0.868 | 0.969 |
| NCI-H1944 | 0.947 | 1.07 | 0.929 | 0.713 | 0.481 |
| NCI-H1975 | 1.03 | 0.922 | 0.908 | 0.803 | 0.847 |
| NCI-H1993 | 0.846 | 0.942 | 0.955 | 0.716 | 0.794 |
| NCI-H2009 | 1.03 | 1.05 | 0.981 | 0.931 | 0.858 |
| NCI-H2023 | 0.982 | 0.89 | 0.705 | 0.304 | 0.167 |
| NCI-H2085 | 0.996 | 1.12 | 1.04 | 0.932 | 0.853 |
| NCI-H2087 | 1.15 | 1.31 | 1.02 | 0.948 | 0.898 |
| NCI-H2126 | 0.986 | 1.07 | 1 | 0.899 | 0.95 |
| NCI-H2170 | 0.991 | 1.03 | 0.93 | 1.01 | 1.07 |
| NCI-H2228 | 1.08 | 1.1 | 0.927 | 0.6 | 0.554 |
| NCI-H2342 | 0.974 | 1.23 | 1.05 | 0.947 | 0.91 |
| NCI-H2347 | 0.987 | 1.09 | 1.2 | 0.953 | 0.853 |
| NCI-H2405 | 0.935 | 1.01 | 0.959 | 0.983 | 0.769 |
| NCI-H3122 | 1.03 | 1.03 | 1.03 | 1.06 | 1.1 |
| PC-3 [JPC-3] | 0.957 | 1.01 | 1.01 | 1.02 | 1.03 |
| PC-14 | 1.04 | 1.01 | 1.01 | 0.707 | 0.425 |
| RERF-LC-KJ | 1.05 | 1.01 | 1.01 | 0.859 | 0.896 |
| SK-LU-1 | 1.18 | 0.696 | 0.809 | 0.432 | 0.268 |
| SK-MES-1 | 1.09 | 1.08 | 0.979 | 0.606 | 0.34 |
| SW 900 | 0.87 | 0.881 | 1 | 0.669 | 0.309 |
| SW 1573 | 0.93 | 1.07 | 1.12 | 0.924 | 0.894 |
| UMC-11 | 1.08 | 0.873 | 0.856 | 0.788 | 0.565 |
